According to PMC4459817, “Vasculotide reduces endothelial permeability and tumor cell extravasation in the absence of binding to or agonistic activation of Tie2” (EMBO Molecular Medicine, 2015):

Target: T1, mouse Tie2-Fc (mTie2-Fc) (Mus musculus, UniProt Q02858)
T1 construct: Purified human or mouse Tie2-Fc (i.e., Fc-conjugated extracellular domains of Tie2); purchased R&D Systems 762-T2-100
Assay: SPR binding to mouse Tie2-Fc
Details: mouse Tie2-Fc (low- and high-density), 37°C, pH 7.4, Supplementary Fig S3, listed as VT
Text: To better understand the difficulties we had in observing Tie2 activation by VT, we sought to characterize the binding affinity and kinetics of VT to Tie2. Purified human or mouse Tie2-Fc (i.e., Fc-conjugated extracellular domains of Tie2) were first coupled to protein A sepharose beads for pull-down experiments (Fig9A and B) or immobilized on a Biacore CM5 sensor chip for surface plasmon resonance (SPR) experiments (Fig9C and Supplementary Fig S3). […]
9. Tie2 Receptor-Binding Assays
Vasculotide (VT) was manufactured by Bachem UK Ltd. T7c (CHHHRHSF) was synthesized by Genscript (Piscataway, NJ, USA). PEG-Cys consists of a single cysteine reacted to each of the 4 arms of PEG-maleimide (Sunbright PTE-100MA, NOF Corporation, Tokyo, Japan). BowAng1 (Ang1-Fd-Fc-Fd) was made and provided by Regeneron Pharmaceuticals, Inc. (Tarrytown, NY, USA). COMP-Ang1 was purified in the Kerbel lab from serum-free culture media conditioned by an engineered CHO cell line provided by Dr. Gou Young Koh (KAIST), according to published protocols (Hwang et al, 2008).
Recombinant human Angiopoietin-1 (rhAng1) and Vascular Endothelial Growth Factor ( rhVEGF) were […]
purchased from R&D Systems. […]
(structural/molecular weight control for VT), and 40 μL of supernatant (7% of residual/unbound ligand) – were similarly boiled in SDS sample buffer. […]
Binding analysis were performed by exposure of immobilized mTie2-Fc to the analytes diluted in HBS-EP (0.01M HEPES pH 7.4, 0.15M NaCl, 3mM EDTA, 0.005% v/v Tween-20), which was supplemented with 1mg/mL carboxymethyl dextran (NSB reducer, GE Healthcare) to reduce non-specific binding to the sensor chip. […] To quantitatively determine the kinetic properties of the interaction (KD, kd, ka) and avoid mass transport limitations, mTie2-Fc and hTie2-Fc were immobilized at low density (1,000-1,200RU) onto separate flow cells of the CM5 chip using amine coupling chemistry. […] All data were analysed using BIA Evaluation Software 2.0 (GE Healthcare) to calculate kd, ka and KD using the 1:1 ligand binding model. […]

T1 sequence (Q02858 23-746 limits assumed): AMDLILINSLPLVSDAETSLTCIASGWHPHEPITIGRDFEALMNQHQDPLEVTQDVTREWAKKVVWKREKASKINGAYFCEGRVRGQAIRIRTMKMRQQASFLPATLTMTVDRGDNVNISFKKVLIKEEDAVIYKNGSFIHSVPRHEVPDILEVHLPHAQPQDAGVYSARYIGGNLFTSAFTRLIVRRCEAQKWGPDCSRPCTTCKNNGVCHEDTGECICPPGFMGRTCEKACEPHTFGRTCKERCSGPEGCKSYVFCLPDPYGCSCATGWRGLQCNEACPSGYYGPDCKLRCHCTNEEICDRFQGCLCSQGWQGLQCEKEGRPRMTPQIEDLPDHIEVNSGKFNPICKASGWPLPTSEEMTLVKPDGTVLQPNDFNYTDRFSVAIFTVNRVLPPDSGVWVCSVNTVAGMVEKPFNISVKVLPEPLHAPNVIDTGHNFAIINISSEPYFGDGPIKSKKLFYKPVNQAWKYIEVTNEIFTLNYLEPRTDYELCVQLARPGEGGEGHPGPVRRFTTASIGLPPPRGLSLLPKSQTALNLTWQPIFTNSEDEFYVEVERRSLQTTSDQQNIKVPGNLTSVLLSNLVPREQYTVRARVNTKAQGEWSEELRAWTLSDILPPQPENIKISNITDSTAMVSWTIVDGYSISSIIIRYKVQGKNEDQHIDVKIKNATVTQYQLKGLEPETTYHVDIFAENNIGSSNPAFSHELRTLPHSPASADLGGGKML

CHHHRHSF [Vasculotide, 4-armed maleimide-functionalized polyethylene glycol (PEG) backbone to link together four cysteine-capped T7 peptides, that is, CHHHRHSF]
binding to Tie2-Fc: no binding to Tie2-Fc was detectable
